Laboratory results as given in patent publication US20140249143A1, “Compounds And Methods For Enhancing Innate Immune Responses” (GlaxoSmithKline LLC, priority 2011, published 2014).

B1: IFNγ: type II interferon used as control treatment (100 U/ml) (protein, UniProt P01579 24-161, looked up)
Interferon gamma: QDPYVKEAENLKKYFNAGHSDVADNGTLFLGILKNWKEESDRKIMQSQIVSFYFKLFKNFKDDQSIQKSVETIKEDMNVKFFNSNKKKRDDFEKLTNYSVTDLNVQRKAIHELIQVMAELSPAAKTGKRKRSQMLFRG
B2: murine IFNα: murine IFNα2 administered intravenously to mice (30 ug/kg) as comparator (protein, UniProt P01573 24-190, looked up)
Interferon alpha-2: CDLPHTYNLRNKRALKVLAQMRRLPFLSCLKDRQDFGFPLEKVDNQQIQKAQAIPVLRDLTQQTLNLFTSKASSAAWNATLLDSFCNDLHQQLNDLQTCLMQQVGVQEPPLTQEDALLAVRKYFHRITVYLREKKHSPCAWEVVRAEVWRALSSSVNLLPRLSEEKE

Key:
[1] = tested on: HCV genotype 1a subgenomic replicon; test: Anti-Hepatitis C replicon assay, genotype 1a (luciferase); type: cell-based; settings: Hepatitis C virus; luciferase activity measured 48 hours later; read-out: HCV Genotype 1A Replicon pEC50 (converted)
Experimental: (§1) Compounds were assayed for activity against HCV using the genotype 1a and 1b subgenomic replicon model systems. Stable cell lines bearing the genotype 1a and 1b replicons were used for screening of compounds. Both replicons are bicistonic and contain the firefly luciferase gene. The ET cell line is stably transfected with RNA transcripts harboring a I389luc-ubi-neo/NS3-3′/ET replicon with firefly luciferase-ubiquitin-neomycin phosphotransferase fusion protein and EMCV-IRES driven NS3-5B polyprotein containing the cell culture adaptive mutations (E1202G; T1280I; K1846T) (Krieger at al, 2001 and unpublished). The genotype 1a replicon is a stable cell line licensed from Apath LLC, modified to contain the firefly luciferase gene. The cells were grown in DMEM, supplemented with 10% fetal calf serum, 2 mM Glutamine, Penicillin (100 IU/mL)/Streptomycin (100 μg/mL), 1× nonessential amino acids, and 250-500 μg/mL G418 (“Geneticin”). They were all available through Life Technologies (Bethesda, Md.). The cells were plated at 0.5×10^4 cells/well in 384 well plates containing compounds. The final concentration of compounds ranged between 0.03 pM to 50 μm and the final DMSO concentration of 0.5-1%.
(§2) Luciferase activity was measured 48 hours later by adding a Steady glo (Promega, Madison, Wis.). Percent inhibition of replication data was plotted relative to no compound control. Under the same condition, cytotoxicity of the compounds was determined using cell titer glo (Promega, Madison, Wis.). IC50s were determined from a 10 point dose response curve using 3-4-fold serial dilution for each compound, which spans a concentration range>1000 fold. BioAssay determines the level of inhibition for each compound by normalizing cross-talk corrected plate values against the negative (low or background, cells with no compound present) and positive (high DMSO, no cells) controls to determine Percent Inhibition:
(§3) These normalized values are exported to IC50 where they are plotted against the molar compound concentrations using the standard four parameter logistic equation: […]

[2] = tested on: HCV genotype 1b subgenomic replicon; test: Anti-Hepatitis C replicon assay, genotype 1b (luciferase); type: cell-based; settings: Hepatitis C virus; luciferase activity measured 48 hours later; read-out: HCV Genotype 1B Replicon pEC50 (converted)
Experimental: as §1, §2, §3

[3] = tested on: ISG56 (Interferon-Stimulated Gene 56) promoter ISRE; test: ISG56 luciferase reporter assay in HEK 293 cells; type: cell-based; settings: Homo sapiens, HEK293; HEK 293 reporter, 24 hours; 100% = small molecule control test compound; read-out: ISG56 (Average Max Response) %
Experimental: Compounds of the present invention were tested against a HEK (Human Embryonic Kidney) 293 cell line that was stably transfected with a firefly luciferase reporter gene under the control of the ISG56 (Interferon-Stimulated Gene 56) promoter ISRE (Interferon-Stimulated Response Element). While the ISRE is in the opposite orientation of the wild type promoter, literature^1 cites that the response elements are pallindromic and function properly in either orientation. ^1Reich, N., Evans, B., Levy, D., Fahey, D., Knight, E., Damell, J. E. (1987) Interferon-induced transcription of a gene encoding a 15-kDa protein depends on an upstream enhancer element. See, Proc. Natl. Acad. Sci. 84, (6394-6398).
In preparation for the assay, test compounds were serially diluted 3-fold in DMSO from a typical top concentration of 5 mM and plated at 0.2 μL in a 384-well, polystyrene, tissue culture treated plate with lid (Greiner Bio-One North America, Inc., Monroe, N.C.) to generate 11-point dose response curves in the assay. Low control wells (0% response) contained 0.2 μL of DMSO alone, and high control wells (100% response) contained 0.2 μL of a small molecule control test compound.
Frozen stocks of the transfected HEK 293 cells were washed and recovered in DMEM I Ham's F-12 media (Invitrogen Corporation, Carlsbad, Calif.) supplemented with 10% v/v qualified Australian fetal bovine serum (FBS) (Invitrogen Corporation, Carlsbad, Calif.), 1× GlutaMAX™ (Invitrogen Corporation, Carlsbad, Calif.), 1×MEM non-essential amino acids (NEAA) (Invitrogen Corporation, Carlsbad, Calif.) and 500 μg/ml Geneticin® (Invitrogen Corporation, Carlsbad, Calif.). The cells were diluted to 500,000 cells/mL in the supplemented DMEM/Ham's F-12 media, and 20 μL of the cell suspension were added to each well of the previously prepared 384-well compound plate, resulting in 10,000 cells/well. The plate, with lid, were placed in a 37° C., 5% CO2 humidified incubator for 24 hours.
Following incubation, the plates were removed and placed on the bench top without lids to equilibrate to room temperature for 30 minutes. Steady-Glo® (Promega Corporation, Madison, Wis.) was prepared according to the manufacturer's instructions, and 10 μL were added to each plate well. After a twenty minute incubation at room temperature, luminescence was read on a ViewLux™ (PerkinElmer Inc., Waltham, Mass.).
The data for dose responses were plotted as % activation versus compound concentration following normalization using the formula 100*((U−C1)/(C2−C1)), where U was the unknown value, C1 was the average of the low (0% response) control wells and C2 was the average of the high (100% response) control wells. Curve fitting was performed with the equation y=A+((B−A)/(1+(10^x/10^C)^D)), where A was the minimum response, B was the maximum response, C was the log(EC50) and D was the Hill slope. The results for each test compound were recorded as pEC50 values (—C in the above equation) and as max response values at a given concentration.

[4] = tested on: reconstructed human epidermis (RHE) keratinocytes; test: JAK/STAT induction in reconstructed human epidermis (western blot, real-time PCR); type: cell-based; settings: 10 μM (IFN-alpha 100 U/mL), 6 and 72 hrs
Experimental: First, reconstructed human epidermis (“RHE”) consisting of cultured human keratinocyte cells were incubated in triplicate with media containing either the media alone, media+0.1% DMSO, media containing 10 μM of several putative JAK/STAT activator compounds described herein in Tables 1 and 2 (Example 1, Example 2, Example 11, and compound no. 89 (as a negative control)), or media containing 100 U/mL of a positive control Interferon-alpha (IFN-alpha) recombinant protein at 37° C. in a humidified atmosphere containing 5% CO2, for 6 and 72 hours.
At the end of the incubation period, the RHE tissues were cut into two sections. One section was ¼ of the total size and the second section was […].

[5] = biological target: T1, human JAK1 (Homo sapiens, UniProt P23458); test: JAK1 reconstitution in U4A and 2fGH cells (phosphor-STAT1 western blot, Taqman mRNA); type: cell-based; settings: 100 U/ml
T1 construct: expressed in transfected cells; host or cells: U4A cells (JAK1-deficient derivative of the human fibroblast line 2fGH), transduced with a baculovirus mammalian expression system
T1 sequence (P23458 whole entry): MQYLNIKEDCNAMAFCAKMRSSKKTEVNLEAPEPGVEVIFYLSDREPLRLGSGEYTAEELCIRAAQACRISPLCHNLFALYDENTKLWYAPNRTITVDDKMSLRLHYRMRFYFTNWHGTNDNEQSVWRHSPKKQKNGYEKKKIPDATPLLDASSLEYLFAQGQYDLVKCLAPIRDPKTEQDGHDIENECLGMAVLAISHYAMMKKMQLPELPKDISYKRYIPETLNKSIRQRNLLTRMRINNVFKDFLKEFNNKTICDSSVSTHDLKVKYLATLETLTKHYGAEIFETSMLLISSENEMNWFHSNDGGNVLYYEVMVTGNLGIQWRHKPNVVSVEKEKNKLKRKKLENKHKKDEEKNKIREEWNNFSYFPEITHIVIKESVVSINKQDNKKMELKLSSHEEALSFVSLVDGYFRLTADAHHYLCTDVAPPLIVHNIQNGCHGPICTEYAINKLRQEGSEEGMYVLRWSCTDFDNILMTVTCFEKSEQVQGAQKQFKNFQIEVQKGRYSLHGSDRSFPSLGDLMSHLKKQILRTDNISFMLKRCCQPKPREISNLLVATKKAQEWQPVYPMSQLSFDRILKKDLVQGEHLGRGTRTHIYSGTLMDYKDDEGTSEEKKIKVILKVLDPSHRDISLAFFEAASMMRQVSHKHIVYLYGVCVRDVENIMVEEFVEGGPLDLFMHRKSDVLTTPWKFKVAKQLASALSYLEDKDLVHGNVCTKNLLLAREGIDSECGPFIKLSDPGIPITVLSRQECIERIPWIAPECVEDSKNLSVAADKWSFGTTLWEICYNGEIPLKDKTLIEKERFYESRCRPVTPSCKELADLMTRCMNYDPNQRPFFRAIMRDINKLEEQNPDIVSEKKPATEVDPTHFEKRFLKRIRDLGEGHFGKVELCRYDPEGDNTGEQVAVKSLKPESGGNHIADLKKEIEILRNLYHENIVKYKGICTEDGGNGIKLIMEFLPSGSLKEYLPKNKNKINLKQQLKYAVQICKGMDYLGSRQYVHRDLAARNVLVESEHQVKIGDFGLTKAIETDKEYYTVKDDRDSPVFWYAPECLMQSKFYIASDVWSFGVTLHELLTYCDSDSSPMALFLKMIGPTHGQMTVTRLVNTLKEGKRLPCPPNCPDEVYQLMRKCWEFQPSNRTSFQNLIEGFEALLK
Experimental: 2fGH and U4A cells were obtained from the Cleveland Clinic. 2fGH is a human fibroblast cell line and U4A cell line is a derivative 2fGH harboring a defect in JAK1 expression (Muller, et al., Nature 366, 129-135 (1993)). Green fluoroscent protein (GFP) or human JAK1 was transduced in U4A cells by baculovirus mammalian expression system. After 24 hours post transduction, the cells were treated with DMSO, Example 1 (10 μM), IFNα (100 U/ml), IFNβ (100 U/ml), or IFNγ (100 U/ml). Untransduced U4A cells and 2fGH cells were included as controls for 6 or 18 hours. The cells were harvested at indicated time points and used for detecting phosphor-STAT1 by western blot (FIG. 10, panel A) or for mRNA analysis by Taqman quantitation (FIG. 10, panel B).
The total cell lysates were analyzed on a 4-20% SDS-PAGE gradient gel and followed by immunoblotting using anti-phopho STAT1 antibody (Cell Signaling). The level of actin was monitored as a loading control. The bands were visualized by the alkaline phosphatase activity conjugated with the secondary antibody (Promega) using ProtoBlot II AP system (Promega).
(§4) Gene expression was measured using TaqMan Fast Universal PCR Master Mix (Applied Biosystems) and gene specific probes and murine primers in HT7900 FAST System (Invitrogen). As housekeeping genes, actin and GAPDH were used for normalization. Data was calculated by the ΔΔCt method and fold change determined compared to non-treated control samples.

[6] = tested on: ISGs and cytokines mRNA; test: Induction of ISGs in mice in vivo; set-up: species or system Balb/c mice; settings: Example 1 oral 300 mg/kg; murine IFNα2 30 ug/kg intravenously
Experimental: Naive Balb/c mice were purchased from Charles River Laboratories (Wilmington, Mass.) and administered with murine IFNα2 (30 ug/kg) intravenously or administered with oral Example 1 (300 mg/kg in 30/70% solutol/polyethylene glycol 400). The mice were then euthanized by CO2 inhalation at 0.5, 2, 6, 8, and 24 hours for sample collection. Four mice per dose group were tested.
For RNA isolation, the blood was collected in an RNAprotect™ tube (Qiagen) and processed with RNeasy Protect™ animal blood kit (Qiagen) according to the manufacturer's protocol. To preserve RNA, 30-200 mg of tissue pieces were stored in RNAlater™ solution (Invitrogen) until use. For RNA isolation, the thawed tissues were homogenized using a TissueLyser™ system (Qiagen) and processed with RNeasy 96 Universal Tissue Kit™ (Qiagen) according to the manufacturer's protocol. To remove DNA contamination, on-plate DNase digestion was included during the RNA purification.
as §4, with “For real time RT-PCR, cDNA was made using High Capacity cDNA Reverse Transcription Kit™ (Applied Biosystems). Gene” for “Gene”, “Mix™” for “Mix”, “System™” for “System”

| Molecule | EC50 [1] [nM] | EC50 [2] [nM] | Emax [3] [%] | Stat1 phosphorylation (western blot) [4] | expression of CXCL9 in 2fGH cells [5] | up-regulation of ISGs at 24 hours [6] |
| --- | --- | --- | --- | --- | --- | --- |
| FC(F)(F)c1cc(C2CCCC2)nc2c1ccc1nc(-c3nnco3)cn12 [Compound 2, 2-[2-cyclopentyl-4-(trifluoromethyl)imidazo[1,2-a]1,8-naphthyridin-8-yl]-1,3,4-oxadiazole] | 50.1 | 251 | 31 | Stat1 phosphorylation |  |  |
| FC(F)(F)c1cc(-c2cccnc2)nc2c1ccc1nc(-c3nnco3)cn12 [Compound 19, 3-[8-(1,3,4-oxadiazol-2-yl)-4-(trifluoromethyl)imidazo[1,2-a]1,8-naphthyridin-2-yl]pyridine] | 12600 | 1580 | 9 |  |  |  |
| FC(F)(F)c1cc(C2CC2)nc2c1ccc1nc(-c3nnco3)cn12 [Compound 5, 2[2-cyclopropyl-4-(trifluoromethyl)imidazo[1,2-a]1,8-naphthyridin-8-yl]-1,3,4-oxadiazole] | 100 | 398 | 151 |  |  |  |
| Cn1c(-c2nnco2)cc2ccc3c(C(F)(F)F)cc(C(F)(F)F)nc3c21 [Compound 16, 2-[1-methyl-6,8-bis(trifluoromethyl)-1H-pyrrolo[3,2-h]quinolin-2-yl]-1,3,4-oxadiazole] | 251 | 1000 | 35.5 |  |  |  |
| FC(F)(F)c1cc(C(F)(F)F)c2ccc3nc(-c4nnco4)c(Cl)n3c2n1 [Compound 18, 2-[9-chloro-2,4-bis(trifluoromethyl)imidazo[1,2-a]1,8-naphthyridin-8-yl]-1,3,4-oxadiazole] | 251 | 1580 | 27 |  |  |  |
| CC(=O)n1c(-c2nnco2)cc2ccc3c(C(F)(F)F)cc(C(F)(F)F)nc3c21 [Compound 22, 1-[2-(1,3,4-oxadiazol-2-yl)-6,8-bis(trifluoromethyl)-1H-pyrrolo[3,2-h]quinolin-1-yl]ethan-1-one] | 501 | 2000 | 60.5 |  |  |  |
| B1 |  |  |  |  | only observed with IFNγ treatment |  |
| B2 |  |  |  |  |  | evidently diminished |
